Assay results: publication PMC10257182, “Discovery of senolytics using machine learning” (Nature Communications, 2023)
Several values for one entry are separate records, joined by “and”; a condition that tells them apart may be missing. Equal entries are not always repeated.

Legend:
Assay type in all cases: cell-based, human
[1] = tested on: senescent A549 cells (etoposide-induced); experiment: Nuclei count senolytic assay, therapy-induced senescence (TIS) model, senescent cells; settings: for Mean % Cell Survival: Senescent cells; for % Cell Survival: senescence cells, single replicate
Summary of the method: (§1)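 Read-out is the imaged count of Hoechst 33342-stained nuclei (2 μg/ml final) in fixed, permeabilised A549 cells. Senescent cells had received etoposide at 100 μM for 48 h plus three days recovery in normal media. Compound exposure lasted 72 h across a 10-point […] range, 10 μM to 10 nM.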

[2] = tested on: non-senescent control A549 cells; experiment: Nuclei count senolytic assay, TIS model, non-senescent control cells; settings: for Mean % Cell Survival: Control cells; for % Cell Survival: control cells, single replicate
Summary of the method: as §1

[3] = tested on: senescent IMR90 ER:RAS cells (4-OHT-induced); experiment: Nuclei count (Hoechst, high content imaging) senolytic assay, oncogene-induced senescence (OIS) model, senescent cells; settings: for Mean % Cell Survival: Senescent, mean n=3 (Fig 3C); for % Cell Survival: senescence
Summary of the method: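 Readout is automated image-based counting of Hoechst-stained nuclei per well, with loss of cells relative to untreated wells taken as cell death. Senescent (4-OHT, 100 nM) and control IMR90 ER:RAS cells were exposed to compounds for 72 h at 10 nM to 10 μM final.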

For `CO[C@H]1C[C@H](O[C@H]2CC[C@]3(C)[C@H]4CC[C@]5(C)[C@@H](C6=CC(=O)OC6)CC[C@]5(O)[C@@H]4CC[C@]3(O)C2)O[C@H](C)[C@H]1O[C@@H]1O[C@H](CO)[C@@H](O)[C@H](O)[C@H]1O` [Periplocin, periplocin], which “concentration at which a senolytic effect was reached” value ([1]; TIS A549, Hoechst labelling, marginal effect on normal cells) is on record?
The value was 46.4 nM.

And the IC50 ([1]; TIS model, etoposide-induced senescent A549, nuclei count, 72 h)?
Its IC50 is 0.0722 µM.

What about the “senolytic action (in words)” value ([1]; experimental screen, TIS senescent A549) of the same molecule?
The value was “strong senolytic action”.

What about the “Mean % Cell Survival” value ([1]; log (dose) [M] -5) of the same molecule?
Its value is 2.656%.

What about the “% Cell Survival” value ([1]; log (dose) [M] -5) of the same molecule?
Its value is 2.664% and 2.743% and 2.561%.

And the “Mean % Cell Survival” value ([1]; log (dose) [M] -5.33)?
Its value is 3.4604%.

What about the “% Cell Survival” value ([1]; log (dose) [M] -5.33) of the same molecule?
The value was 2.7192% and 5.421% and 2.241%.

And the “Mean % Cell Survival” value ([1]; log (dose) [M] -5.66)?
Its value is 3.427%.

What about the “% Cell Survival” value ([1]; log (dose) [M] -5.66) of the same molecule?
Its value is 2.83% and 4.507% and 2.945%.

What about the “Mean % Cell Survival” value ([1]; log (dose) [M] -6) of the same molecule?
The value was 6.477%.

What about the “% Cell Survival” value ([1]; log (dose) [M] -6) of the same molecule?
The value was 6.937% and 6.9889% and 5.506%.

What about the “Mean % Cell Survival” value ([1]; log (dose) [M] -6.33) of the same molecule?
The value was 11.1387%.

What about the “% Cell Survival” value ([1]; log (dose) [M] -6.33) of the same molecule?
The value was 13.0411% and 10.516% and 9.859%.

And the “Mean % Cell Survival” value ([1]; log (dose) [M] -6.66)?
Its value is 17.1368%.

And the “% Cell Survival” value ([1]; log (dose) [M] -6.66)?
Its value is 19.7003% and 13.9125% and 17.7977%.

And the “Mean % Cell Survival” value ([1]; log (dose) [M] -7)?
The value was 34.3857%.

What about the “% Cell Survival” value ([1]; log (dose) [M] -7) of the same molecule?
Its value is 35.4051% and 33.1809% and 34.5711%.

And the “Mean % Cell Survival” value ([1]; log (dose) [M] -7.33)?
Its value is 62.5957%.

What about the “% Cell Survival” value ([1]; log (dose) [M] -7.33) of the same molecule?
The value was 65.3163% and 61.2671% and 61.2036%.

And the “Mean % Cell Survival” value ([1]; log (dose) [M] -7.66)?
Its value is 94.3691%.

And the “% Cell Survival” value ([1]; log (dose) [M] -7.66)?
The value was 88.7902% and 97.518% and 96.799%.

What about the “Mean % Cell Survival” value ([1]; log (dose) [M] -8) of the same molecule?
The value was 98.9494%.

What about the “% Cell Survival” value ([1]; log (dose) [M] -8) of the same molecule?
The value was 101.831% and 100.523% and 94.4942%.

And the IC50 ([2]; TIS model, non-senescent A549, nuclei count, 72 h)?
The IC50 was 0.267 µM.

And the “Mean % Cell Survival” value ([2]; log (dose) [M] -5)?
Its value is 2.124%.

What about the “% Cell Survival” value ([2]; log (dose) [M] -5) of the same molecule?
Its value is 2.877% and 2.211% and 1.286%.

And the “Mean % Cell Survival” value ([2]; log (dose) [M] -5.33)?
The value was 3.638%.

What about the “% Cell Survival” value ([2]; log (dose) [M] -5.33) of the same molecule?
The value was 1.2112% and 8.916% and 0.7857%.

What about the “Mean % Cell Survival” value ([2]; log (dose) [M] -5.66) of the same molecule?
The value was 7.571%.

What about the “% Cell Survival” value ([2]; log (dose) [M] -5.66) of the same molecule?
Its value is 13.9288% and 0.7846% and 8%.

What about the “Mean % Cell Survival” value ([2]; log (dose) [M] -6) of the same molecule?
Its value is 7.77%.

What about the “% Cell Survival” value ([2]; log (dose) [M] -6) of the same molecule?
The value was 11.9606% and 5.492% and 5.857%.

What about the “Mean % Cell Survival” value ([2]; log (dose) [M] -6.33) of the same molecule?
Its value is 26.1787%.

What about the “% Cell Survival” value ([2]; log (dose) [M] -6.33) of the same molecule?
Its value is 37.7744% and 16.7618% and 24%.

What about the “Mean % Cell Survival” value ([2]; log (dose) [M] -6.66) of the same molecule?
Its value is 59.1283%.

What about the “% Cell Survival” value ([2]; log (dose) [M] -6.66) of the same molecule?
Its value is 65.1022% and 52.2111% and 60.0714%.

What about the “Mean % Cell Survival” value ([2]; log (dose) [M] -7) of the same molecule?
The value was 84.2496%.

And the “% Cell Survival” value ([2]; log (dose) [M] -7)?
The value was 92.3543% and 73.8231% and 86.5714%.

What about the “Mean % Cell Survival” value ([2]; log (dose) [M] -7.33) of the same molecule?
Its value is 108.222%.

What about the “% Cell Survival” value ([2]; log (dose) [M] -7.33) of the same molecule?
The value was 116.881% and 101.07% and 106.714%.

And the “Mean % Cell Survival” value ([2]; log (dose) [M] -7.66)?
Its value is 106.048%.

What about the “% Cell Survival” value ([2]; log (dose) [M] -7.66) of the same molecule?
Its value is 102.877% and 112.197% and 103.071%.

And the “Mean % Cell Survival” value ([2]; log (dose) [M] -8)?
Its value is 97.1202%.

And the “% Cell Survival” value ([2]; log (dose) [M] -8)?
Its value is 99.8486% and 91.5121% and 100%.

What about the “dose showing the clearest / optimal senolytic effect” value ([3]; OIS IMR90 ER:RAS, Hoechst nuclei count, marginal effect on normal cells) of the same molecule?
Its value is 46.4 nM.

And the IC50 ([3]; OIS model, 4-OHT-induced IMR90 ER:RAS, nuclei count, 72 h)?
Its IC50 is 0.024 µM.

And the “Mean % Cell Survival” value ([3]; log (dose) [M] -5, 72 h)?
The value was 3.183%.

And the “Mean % Cell Survival” value ([3]; log (dose) [M] -5.33, 72 h)?
Its value is 6.126%.

And the “Mean % Cell Survival” value ([3]; log (dose) [M] -5.66, 72 h)?
Its value is 4.43%.

And the “Mean % Cell Survival” value ([3]; log (dose) [M] -6, 72 h)?
The value was 4.805%.

What about the “Mean % Cell Survival” value ([3]; log (dose) [M] -6.33, 72 h) of the same molecule?
The value was 5.142%.

And the “Mean % Cell Survival” value ([3]; log (dose) [M] -6.66, 72 h)?
The value was 5.675%.

What about the “Mean % Cell Survival” value ([3]; log (dose) [M] -7, 72 h) of the same molecule?
Its value is 6.834%.

What about the “Mean % Cell Survival” value ([3]; log (dose) [M] -7.33, 72 h) of the same molecule?
The value was 16.5597%.

What about the “Mean % Cell Survival” value ([3]; log (dose) [M] -7.66, 72 h) of the same molecule?
The value was 54.5059%.

What about the “Mean % Cell Survival” value ([3]; log (dose) [M] -8, 72 h) of the same molecule?
The value was 96.9401%.

And the “senolytic activity (in words)” value ([3]; experimental screen, OIS IMR90 ER:RAS)?
The value was “clear senolytic action”.

What about the “senolytic index (SI)” value ([3]; ratio between the IC50 of control cells and the IC50 of senescent cells, OIS IMR90 ER:RAS) of the same molecule?
Its value is 12.3.

And the “% Cell Survival” value ([3]; log (dose) [M] -5, individual replicates (Fig 3D))?
The value was 3.074% and 3.321% and 3.154%.

What about the “% Cell Survival” value ([3]; log (dose) [M] -5.33, individual replicates (Fig 3D)) of the same molecule?
Its value is 5.0494% and 9.706% and 3.6215%.

What about the “% Cell Survival” value ([3]; log (dose) [M] -5.66, individual replicates (Fig 3D)) of the same molecule?
The value was 4.72% and 4.5977% and 3.972%.

What about the “% Cell Survival” value ([3]; log (dose) [M] -6, individual replicates (Fig 3D)) of the same molecule?
The value was 4.061% and 4.981% and 5.374%.

What about the “% Cell Survival” value ([3]; log (dose) [M] -6.33, individual replicates (Fig 3D)) of the same molecule?
Its value is 6.147% and 3.321% and 5.958%.

And the “% Cell Survival” value ([3]; log (dose) [M] -6.66, individual replicates (Fig 3D))?
Its value is 4.501% and 7.152% and 5.374%.

And the “% Cell Survival” value ([3]; log (dose) [M] -7, individual replicates (Fig 3D))?
The value was 5.818% and 7.791% and 6.893%.

What about the “% Cell Survival” value ([3]; log (dose) [M] -7.33, individual replicates (Fig 3D)) of the same molecule?
Its value is 17.8924% and 15.198% and 16.5888%.

What about the “% Cell Survival” value ([3]; log (dose) [M] -7.66, individual replicates (Fig 3D)) of the same molecule?
Its value is 42.1515% and 64.2401% and 57.1262%.

What about the “% Cell Survival” value ([3]; log (dose) [M] -8, individual replicates (Fig 3D)) of the same molecule?
Its value is 93.8529% and 97.318% and 99.6495%.
